Source: US9241488B2, “Azole derivative, method for producing azole derivative, and intermediate compound” (KUREHA CORPORATION, priority 2011, dated 2016)
Where two headings read alike, the source gives them in different places.

Assays:
[1] = test system: Wheat pink snow mold (Microdochium nivale); experiment: Anti-bacterial effect on various microorganisms (plate medium), M.n; type: cell-based
[2] = test system: Rice bacterial seeding blight (Rhizopus oryzae); experiment: Anti-bacterial effect on various microorganisms (plate medium), R.o; type: cell-based
[3] = test system: Barley loose smut (Ustilago nuda); experiment: Anti-bacterial effect on various microorganisms (plate medium), U.n; type: cell-based
[4] = test system: Wheat eye spot (Pseudocercoporella herpotrichoides); experiment: Anti-bacterial effect on various microorganisms (plate medium), P.h; type: cell-based
[5] = test system: wheat-brown-rust-causing microorganisms; experiment: Controlling effect on wheat brown rust (spray, pot test); type: in vivo, Puccinia recondita; details: 1 mg/L sprayed at 1,000 L/ha, wheat NORIN No. 61, 9 to 14 days after inoculation
Description: Onto a wheat plant (cultivar: NORIN No. 61) grown to the two-leaf stage with use of a square plastic pot (6 cm×6 cm), a wettable formulation such as Formulation Example 1 which was diluted and suspended in water at a concentration of 1 mg/L was sprayed at a rate of 1,000 L/ha. The sprayed leaves were air-dried, and inoculated with spore suspension of wheat-brown-rust-causing microorganisms (adjusted at 200 spores/vision, […] was added at 60 ppm) by spraying, and kept at 25° C. and a high humidity for 48 hours. Thereafter, the plant was kept in a greenhouse. Nine to fourteen days after inoculation, the wheat brown rust lesion degree was evaluated. The protective value was calculated by the following equation. Protective value (%)=(1-mean lesion degree in sprayed plot/mean lesion degree in unsprayed plot)×100 [table] [table]

[6] = test system: Rice bakanae disease (Giberella fujikuroi); experiment: Anti-bacterial effect on various microorganisms (plate medium), G.f; type: cell-based
[7] = test system: Wheat Septoria nodorum blotch microorganism (Phaeosphaeria nodorum); experiment: Anti-bacterial effect on various microorganisms (plate medium), P.n; type: cell-based
[8] = test system: Wheat fusarium blight (Fusarium graminearum); type: cell-based
[9] = test system: Gray mold (Botritis cinerea); experiment: Anti-bacterial effect on various microorganisms (plate medium), B.c; type: cell-based
[10] = test system: Alternaria blotch (Alternaria alternata); experiment: Anti-bacterial effect on various microorganisms (plate medium), A.m; type: cell-based
[11] = test system: Rice blast (Pyricularia oryzae); type: cell-based
[12] = test system: Cucumber fusarium wilt (Fusarium oxysporum); experiment: Anti-bacterial effect on various microorganisms (plate medium), F.c; type: cell-based
[13] = test system: Barley leaf blotch (Rhynchosporium secalis); experiment: Anti-bacterial effect on various microorganisms (plate medium), R. sec; type: cell-based
[14] = test system: Sclerotinia rot (Sclerotinia sclerotiorum); experiment: Anti-bacterial effect on various microorganisms (plate medium), S.s; type: cell-based
[15] = test system: wheat leaf blight-causing microorganisms; experiment: Anti-bacterial effect on wheat leaf blight-causing microorganisms (PDA plate, mycelial growth inhibition); type: cell-based, Septoria tritici; details: 1.25 mg/L in PDA plate medium, 25° C., 14 days
Description: In Test Examples, an anti-bacterial effect of a compound in accordance with the present invention on the wheat leaf blight-causing microorganisms was tested, and was compared with the anti-bacterial effect of a comparative compound (1).
A dimethyl sulfoxide solution (0.6 ml) containing a compound in accordance with the present invention was added to a PDA medium (potato dextrose agar medium) (60 ml) having about 60° C., and the resultant mixture was mixed thoroughly in a 100-ml conical flask. The mixture was poured into a dish, and was solidified. […]
On the other hand, a subject microorganism previously cultured on a plate medium was cut out with use of a cork borer whose diameter was 4 mm, and the wheat leaf blight-causing microorganism on the plate medium thus cut out was inoculated to the chemical-containing plate medium described above. After such inoculation, the chemical-containing plate medium was incubated at 25° C. for 14 days, and then diameters of its flora were measured. A % mycelial growth inhibition was calculated with use of the formula. R=100(dc−dt)/dc (where R=% mycelial extension inhibition, dc=flora diameter in untreated plate, dt=flora diameter in treated plate)
The results obtained as described above were evaluated on a five-point scale according to the following criteria.
• 5: % Mycerial growth inhibition of 80% or higher • 4: % Mycerial growth inhibition of less than 80 to 60% or higher • 3: % Mycerial growth inhibition of less than 60 to 40% or higher • 2: % Mycerial growth inhibition of less than 40 to 20% or higher • 1: % Mycerial growth inhibition of less than 20%

SMILES | Growth inhibition grade M.n ([1]; 1.25 mg/L) | Growth inhibition grade M.n ([1]; 5 mg/L) | Growth inhibition grade R.o ([2]; 1.25 mg/L) | Growth inhibition grade R.o ([2]; 5 mg/L) | Growth inhibition grade U.n ([3]; 1.25 mg/L) | Growth inhibition grade U.n ([3]; 5 mg/L) | Growth inhibition grade P.h ([4]; 1.25 mg/L) | Growth inhibition grade P.h ([4]; 5 mg/L) | Protective value [5] | Growth inhibition grade G.f ([6]; 1.25 mg/L) | Growth inhibition grade G.f ([6]; 5 mg/L) | Growth inhibition grade P.n ([7]; 1.25 mg/L) | Growth inhibition grade P.n ([7]; 5 mg/L) | Growth inhibition grade F.g ([8]; 1.25 mg/L) | Growth inhibition grade F.g ([8]; 5 mg/L) | Growth inhibition grade B.c ([9]; 1.25 mg/L) | Growth inhibition grade B.c ([9]; 5 mg/L) | Growth inhibition grade A.m ([10]; 1.25 mg/L) | Growth inhibition grade A.m ([10]; 5 mg/L) | Growth inhibition grade P.o ([11]; 1.25 mg/L) | also measured
COC[C@]1(CCl)CC[C@H](Cc2ccc(Cl)cc2)[C@]1(O)Cn1cncn1 (racemic) [Compound I-16b, (1RS,2RS,5RS)-5-(4-chlorobenzyl)-2-chloromethyl-2-methoxymethyl-1H-[1,2,4]triazole-1-ylmethylcyclopentanol] | 3 (% Mycerial growth inhibition of less than 60 to 40% or higher) | 5 (% Mycerial growth inhibition of 80% or higher) | 5 (% Mycerial growth inhibition of 80% or higher) | 5 (% Mycerial growth inhibition of 80% or higher) |  |  |  |  |  |  |  |  |  |  |  |  |  |  |  |  | 
COC[C@]1(CCl)CC[C@@H](Cc2ccc(F)cc2)[C@]1(O)Cn1cncn1 (racemic) [Compound I-170, (1RS,2RS,5SR)-5-(4-fluorobenzyl)-2-chloromethyl-2-methoxymethyl-1H-[1,2,4]triazole-1-ylmethylcyclopentanol] | 5 (% Mycerial growth inhibition of 80% or higher) | 5 (% Mycerial growth inhibition of 80% or higher) | 5 (% Mycerial growth inhibition of 80% or higher) | 5 (% Mycerial growth inhibition of 80% or higher) | 5 (% Mycerial growth inhibition of 80% or higher) | 5 (% Mycerial growth inhibition of 80% or higher) | 5 (% Mycerial growth inhibition of 80% or higher) | 5 (% Mycerial growth inhibition of 80% or higher) | 4 (61 to 80) | 5 (% Mycerial growth inhibition of 80% or higher) | 5 (% Mycerial growth inhibition of 80% or higher) | 5 (% Mycerial growth inhibition of 80% or higher) | 5 (% Mycerial growth inhibition of 80% or higher) | 5 (% Mycerial growth inhibition of 80% or higher) | 5 (% Mycerial growth inhibition of 80% or higher) | 5 (% Mycerial growth inhibition of 80% or higher) | 5 (% Mycerial growth inhibition of 80% or higher) | 4 (% Mycerial growth inhibition of less than 80 to 60% or higher) | 5 (% Mycerial growth inhibition of 80% or higher) | 5 (% Mycerial growth inhibition of 80% or higher) | Growth inhibition grade P.o ([11]; 5 mg/L): 5 (% Mycerial growth inhibition of 80% or higher); Growth inhibition grade F.c ([12]; 1.25 mg/L): 5 (% Mycerial growth inhibition of 80% or higher); Growth inhibition grade F.c ([12]; 5 mg/L): 5 (% Mycerial growth inhibition of 80% or higher); Growth inhibition grade R. sec ([13]; 1.25 mg/L): 5 (% Mycerial growth inhibition of 80% or higher); Growth inhibition grade R. sec ([13]; 5 mg/L): 5 (% Mycerial growth inhibition of 80% or higher); Growth inhibition grade S.s ([14]; 1.25 mg/L): 5 (% Mycerial growth inhibition of 80% or higher); Growth inhibition grade S.s ([14]; 5 mg/L): 5 (% Mycerial growth inhibition of 80% or higher); Growth inhibition grade [15]: 5 (% Mycerial growth inhibition of 80% or higher)
COC[C@]1(CCl)CC[C@@H](Cc2ccccc2)[C@]1(O)Cn1cncn1 (racemic) [Compound I-187, (1RS,2RS,5SR)-5-benzyl-2-chloromethyl-2-methoxymethyl-1H-[1,2,4]triazole-1-ylmethylcyclopentanol] | 5 (% Mycerial growth inhibition of 80% or higher) | 5 (% Mycerial growth inhibition of 80% or higher) | 5 (% Mycerial growth inhibition of 80% or higher) | 5 (% Mycerial growth inhibition of 80% or higher) | 5 (% Mycerial growth inhibition of 80% or higher) | 5 (% Mycerial growth inhibition of 80% or higher) | 5 (% Mycerial growth inhibition of 80% or higher) | 5 (% Mycerial growth inhibition of 80% or higher) | 4 (61 to 80) | 5 (% Mycerial growth inhibition of 80% or higher) | 5 (% Mycerial growth inhibition of 80% or higher) | 4 (% Mycerial growth inhibition of less than 80 to 60% or higher) | 5 (% Mycerial growth inhibition of 80% or higher) | 5 (% Mycerial growth inhibition of 80% or higher) | 5 (% Mycerial growth inhibition of 80% or higher) | 5 (% Mycerial growth inhibition of 80% or higher) | 5 (% Mycerial growth inhibition of 80% or higher) | 4 (% Mycerial growth inhibition of less than 80 to 60% or higher) | 5 (% Mycerial growth inhibition of 80% or higher) | 5 (% Mycerial growth inhibition of 80% or higher) | Growth inhibition grade P.o ([11]; 5 mg/L): 5 (% Mycerial growth inhibition of 80% or higher); Growth inhibition grade F.c ([12]; 1.25 mg/L): 5 (% Mycerial growth inhibition of 80% or higher); Growth inhibition grade F.c ([12]; 5 mg/L): 5 (% Mycerial growth inhibition of 80% or higher); Growth inhibition grade R. sec ([13]; 1.25 mg/L): 5 (% Mycerial growth inhibition of 80% or higher); Growth inhibition grade R. sec ([13]; 5 mg/L): 5 (% Mycerial growth inhibition of 80% or higher); Growth inhibition grade S.s ([14]; 1.25 mg/L): 5 (% Mycerial growth inhibition of 80% or higher); Growth inhibition grade S.s ([14]; 5 mg/L): 5 (% Mycerial growth inhibition of 80% or higher); Growth inhibition grade [15]: 5 (% Mycerial growth inhibition of 80% or higher)
